According to ChEMBL document CHEMBL1128837, “The evaluation of 2- and 6-substituted carbocyclic nucleosides as building blocks for antisense oligonucleotides” (Bioorg Med Chem Lett, 1995):

How the values were obtained:
[1] = Melting temperature (Tm) of the modified DNA/RNA duplex at 48 degree Celsius (5'-GCGtttttttttGCG-3'); No cooperative melting observed
[2] = Effect of compound on the nuclease resistance of wild type 5'-d(TCC AGG TGT CCG TTT C)-3' in 10% heat-activated fetal calf serum (FCS) expressed as t1/2; format: functional
[3] = Difference in melting temperature (Tm) between the modified DNA/RNA duplex and the unmodified wild type (WT) duplex per modification at 52.3 degree Celsius (5'-TTTTtCTCTCTCTCT-3'); format: functional
[4] = Difference in melting temperature (Tm) between the modified DNA/RNA duplex and the unmodified wild type (WT) duplex per modification at 61.7 degree Celsius (5'-CTCGTACttttCCGGTCC-3'); format: functional
[5] = Difference in melting temperature (Tm) between the modified DNA/RNA duplex and the unmodified wild type (WT) duplex per modification at 61.8 degree Celsius (5'-tCCAGGtGtCCGCAtC-3'); format: functional
[6] = Melting temperature (Tm) of the modified DNA/RNA duplex at 48 degree Celsius (5'-GCGttttttttttGCG-3')
[7] = Difference in melting temperature (Tm) between the modified DNA/RNA duplex and the unmodified wild type (WT) duplex per modification at 63.9 degree Celsius (5'-CTCGTACCtTTCCGGTCC-3'); format: functional
[8] = Ratio of effect of compound on the nuclease resistance of full length oligonucleotide to that of wild type in 10% heat-activated fetal calf serum (FCS); format: functional
[9] = Effect of compound on the nuclease resistance of 5'-d(TCC AGG TGT CCG TTT C)-3' in 10% heat-activated fetal calf serum (FCS) expressed as t1/2; format: functional
[10] = Difference in melting temperature (Tm) between the modified DNA/RNA duplex and the unmodified wild type (WT) duplex per modification at 52.3 degree Celsius (5-tttttc*tc*tc*tc*tc*T-3); format: functional
[11] = Difference in melting temperature (Tm) between the modified DNA/RNA duplex and the unmodified wild type (WT) duplex per modification at 48 degree Celsius (5'-GCGttttttttttGCG-3'); format: functional
[12] = Difference in melting temperature (Tm) between the modified DNA/RNA duplex and the unmodified wild type (WT) duplex per modification at 52.3 degree Celsius (5'-tttttctctctctT-3'); format: functional
[13] = Stability against degradation by 3'-exonucleases for the sequence 5'-d(TCC AGG TGT CCG TTT C)-3' in 10% heat-activated fetal calf serum (FCS); format: functional
[14] = Difference in melting temperature (Tm) between the modified DNA/RNA duplex and the unmodified wild type (WT) duplex per modification at 63.9 degree Celsius (5-ctcGtacctttccGGtcC-3; format: functional
[15] = Difference in melting temperature (Tm) between the modified DNA/RNA duplex and the unmodified wild type (WT) duplex per modification at 52.3 degree Celsius (5-tttttC*tc*tc*tc*tc*T-3); format: functional

Row | SMILES | Tm [1] [°C] | T1/2 [2] [h] | ΔTm [3] | ΔTm [4] | ΔTm [5] | Tm [6] [°C] | ΔTm [7] | Ratio [8] | T1/2 [9] [h] | ΔTm [10] | ΔTm [11] | ΔTm [12] | ΔTm [13] | ΔTm [14] | ΔTm [15]
1 | Cc1cn([C@H]2C[C@H](O)[C@@H](CO)[C@@H]2OCCCc2ccccc2)c(=O)[nH]c1=O | < 20 | 2 | -4 | -1.7 | -2.8 | < 20 | -2.8 | > 24 | > 48 | – | – | – | – | – | –
2 | Cc1cn([C@H]2C[C@H](O)[C@@H](CO)[C@@H]2O)c(=O)[nH]c1=O | – | 2 | -0.8 | 0.2 | -0.4 | – | – | 7 | 14 | 0.4 | 0.8 | – | – | – | –
3 | CO[C@@H]1[C@H](O)[C@@H](CO)C[C@H]1n1cc(C)c(=O)[nH]c1=O | – | – | 1.1 | -0.7 | – | – | -1.9 | – | – | – | -1 | – | – | – | –
4 | Cc1cn([C@H]2C[C@H](O)[C@@H](CO)O2)c(=O)[nH]c1=O | – | – | – | – | – | – | 0.2 | – | – | – | 0.25 | 0.4 | 2.5 | 0.3 | –
5 | COCCOCCO[C@H]1[C@H](CO)[C@@H](O)C[C@@H]1n1cc(C)c(=O)[nH]c1=O | – | – | -1.8 | – | – | – | – | – | – | – | – | – | – | – | -1.9
6 | COCCOCCOCCO[C@@H]1[C@H](O)[C@@H](CO)C[C@H]1n1cc(C)c(=O)[nH]c1=O | – | – | 0.2 | -2.6 | -1.1 | < 20 | -2.9 | – | – | – | – | – | – | – | –
7 | Cc1cn([C@H]2C[C@H](O)[C@@H](CO)[C@@H]2OCCCCN)c(=O)[nH]c1=O | – | 2 | -1.1 | – | -1.4 | – | -1.8 | > 24 | > 48 | – | -1.9 | – | – | – | –
8 | CO[C@H]1[C@H](CO)[C@@H](O)C[C@@H]1n1cc(C)c(=O)[nH]c1=O | – | 2 | -2 | -0.7 | -1.3 | – | 0.2 | 10 | 20 | – | -0.9 | – | – | – | –
